The numbers were not newly measured in patent US6623763B2, “Pharmaceutical preparation adhering to the skin, in particular a transdermal therapeutic system for the release of 17-β-estradiol to the human organism” (LTS Lohmann Therape-System AG, priority 1996, dated 2003), which cites them from elsewhere.

For data set [1], the system named is Alzheimer's and Parkinson's disease. The conditions noted are these: uniform supply of estradiol.

In the case of `C[C@]12CC[C@@H]3c4ccc(O)cc4CC[C@H]3[C@@H]1CC[C@@H]2O` [17-β-estradiol], the “efficacy for prophylaxis of Alzheimer's and Parkinson's disease” value in data set [1] is given as “effective”.
As for `C[C@]12CC[C@@H]3c4ccc(O)cc4CC[C@H]3[C@@H]1CC[C@@H]2O` [17-β-estradiol semihydrate, 17-β-estradiol-semihydrate], the “temperature of short-term heat treatment without decomposition” value was “up to 170 °C”.
